Laboratory results as given in patent US11059823B2, “Small molecule inhibitors of the JAK family of kinases” (Janssen Pharmaceutica NV, priority 2016, dated 2021).

Tests used:
Tyk2-JH1JH2 = Tyk2-JH1JH2 (Homo sapiens (Human), UniProt P29597, C1142A/C936A); assay: Enzymatic inhibition assay (HTMS), Tyk2; assay type: biochemical; conditions: 50 μM ATP; read-out: Tyk2_I_JH1JH2 IC50
Text: (§1) JAK1-JH1JH2 (574-1154 with a His-GST Tag and a C-terminal tev (ENLYFQ-G) cleavage site), JAK3-JH1JH2 (512-1124 with a GST Tag and a C-terminal tev (ENLYFQ-G) cleavage site), and Tyk2-JH1JH2 (8H_tev_580-1182-C936A-C1142A with a C-terminal tev (ENLYFQ-G) cleavage site) were purified internally. […] LC/MS grade water and acetonitrile (ACN), were purchased from HoneyWell, Burdick & Jackson (Muskegon, Mich., USA). Dimethylsulfoxide 99.8% (DMSO) and trifluoroacetic acid 99.5% (TFA) were purchased from EMD Chemical (Gibbstown, N.J., USA). Adenosine triphosphate (ATP), 4-morpholinepropanesulfonic acid (MOPS), magnesium chloride (MgCl2), ethylenediaminetetraacetic acid (EDTA), dithiothreitol (DTT), formic acid >95% (FA) and Tween-20 were purchased from Sigma (St Louis, Mo., USA). 384-well polypropylene plates, Cat#781280 were purchased from Greiner (Monroe, N.C.), RapidFire™ cartridge A C4 Column (Agilent Technologies, Santa Clara, Calif.). […]
(§2) 11-point dosing series were made for each compound by serially diluting 1:3 or 1:4 in DMSO, with point 12 being a DMSO control. […] Compound inhibition was assessed by a decrease of the phosphorylated product levels in sample wells compared to the non-inhibited enzyme reaction. […]

JAK2-JH1JH2 = JAK2-JH1JH2 (Homo sapiens (Human), UniProt O60674); assay: Enzymatic inhibition assay (HTMS), JAK2; assay type: biochemical; conditions: 30 μM ATP; read-out: JAK2_I_JH1JH2 IC50
Sequence of JAK2-JH1JH2 (O60674 532-1132): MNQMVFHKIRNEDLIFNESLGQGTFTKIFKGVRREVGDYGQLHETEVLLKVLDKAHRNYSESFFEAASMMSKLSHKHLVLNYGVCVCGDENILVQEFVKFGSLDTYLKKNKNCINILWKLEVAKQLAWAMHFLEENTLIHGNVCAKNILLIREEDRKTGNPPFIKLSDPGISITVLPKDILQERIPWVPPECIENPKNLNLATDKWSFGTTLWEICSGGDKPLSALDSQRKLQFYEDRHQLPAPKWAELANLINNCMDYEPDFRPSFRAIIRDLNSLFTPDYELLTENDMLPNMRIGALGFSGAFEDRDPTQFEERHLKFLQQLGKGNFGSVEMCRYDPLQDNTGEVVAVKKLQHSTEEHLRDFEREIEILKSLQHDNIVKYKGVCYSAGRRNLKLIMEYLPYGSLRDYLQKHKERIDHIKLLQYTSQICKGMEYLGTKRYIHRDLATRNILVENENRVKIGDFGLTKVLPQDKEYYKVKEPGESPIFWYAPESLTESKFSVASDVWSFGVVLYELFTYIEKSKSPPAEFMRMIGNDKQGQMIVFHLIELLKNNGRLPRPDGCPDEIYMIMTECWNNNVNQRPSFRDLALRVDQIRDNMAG
Text: as §1, §2

Sequence of Tyk2-JH1JH2 (P29597 580-1182 C936A/C1142A): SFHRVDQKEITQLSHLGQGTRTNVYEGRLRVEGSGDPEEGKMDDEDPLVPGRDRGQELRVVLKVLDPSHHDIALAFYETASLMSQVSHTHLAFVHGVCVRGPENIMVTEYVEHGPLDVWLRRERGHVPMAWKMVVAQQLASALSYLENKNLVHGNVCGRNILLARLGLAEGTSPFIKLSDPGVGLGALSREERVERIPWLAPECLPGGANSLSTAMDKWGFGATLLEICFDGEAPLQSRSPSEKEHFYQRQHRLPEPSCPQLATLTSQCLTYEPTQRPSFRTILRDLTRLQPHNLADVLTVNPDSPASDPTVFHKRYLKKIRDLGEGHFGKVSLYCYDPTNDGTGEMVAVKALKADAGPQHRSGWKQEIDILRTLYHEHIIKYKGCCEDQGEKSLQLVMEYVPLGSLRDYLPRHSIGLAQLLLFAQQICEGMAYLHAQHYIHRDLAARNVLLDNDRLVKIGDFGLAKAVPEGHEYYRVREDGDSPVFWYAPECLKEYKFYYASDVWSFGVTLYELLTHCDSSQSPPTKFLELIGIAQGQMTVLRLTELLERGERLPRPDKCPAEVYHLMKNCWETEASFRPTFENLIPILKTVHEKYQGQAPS

Structure (SMILES): N#CC[C@H]1CC[C@H](n2c(-c3c[nH]cn3)nc3cnc4[nH]ccc4c32)CC1 [Ex. 2, 2-((1r,4r)-4-(2-(1H-Imidazol-4-yl)imidazo[4,5-d]pyrrolo[2,3-b]pyridin-1(6H)-yl)cyclohexyl)acetonitrile]
- IC50 (Tyk2-JH1JH2): 1.5 nM
- IC50 (JAK2-JH1JH2): 1 nM
